Laboratory results taken from patent US11299760B2 (Amgen Inc., priority 2013, dated 2022).

Columns and labels:
[1] = system: Cells producing MAb C; assay: mock perfusion assay, glycan analysis; format: cell-based, Chinese hamster
Description: (§1) Mock perfusion assay is a small scale, plate-based assay that is designed to mimic perfusion conditions in bioreactors through daily medium exchanges. For a 10-day mock perfusion assay, passaging cultures of various production cell lines were diluted 1:5 into chemically defined base perfusion medium in a 24 deep-well plate at a final volume of 3 ml per well. Mock perfusion was initiated on day 3 when the cells were spun down at 1000 rpm for 5 minutes and 25% of each spent culture medium was exchanged with the equivalent volume of fresh perfusion media. Subsequent medium exchange percentages were 40% on days 4-8 and 50% on day 9. Exchanged supernatants were stored at 4° C. prior to analysis.
(§2) Analysis of cell culture parameters was also started on day 3; viable cell density and viability were analyzed using the ViaCount Guava assay as previously described. Glucose was measured daily starting on day 3 and was maintained at 12 g/l. Stored supernatants were analyzed for antibody titer as described previously. Samples of supernatant fluid from days 6, 8 and 10 were also analyzed for the presence and type of glycans by HILIC analysis.
Equivalent volumes of methanol were added daily to control cultures (columns 1 and 2 of the 24-well plate). This scheme is depicted below:
Total high mannose values (Total HM column) and the corresponding distributions into high mannose species from Man5 through Man9 were determined for purified antibody samples collected on day 10. Each value shown in Table 4 represents an average of duplicates.

[2] = system: production cell lines (MAb A, MAb B, MAb C, MAb D); assay: mock perfusion assay, glycan analysis, all four production cell lines; format: cell-based, Chinese hamster
Description: as §1, §2
The cell lines used included three production cell lines that are known to generate mAbs with low high mannose glycans (MAb A, MAb B and MAb C) and one production cell line that consistently produces product with high levels of high mannose glycans (MAb D). […]

[3] = constant monensin 25 nM, day 10
[4] = increasing monensin (to 100 nM), day 10

Structure (SMILES): CC[C@@]1([C@@H]2O[C@@H]([C@H]3O[C@@](O)(CO)[C@H](C)C[C@@H]3C)C[C@@H]2C)CC[C@H]([C@]2(C)CC[C@]3(C[C@H](O)[C@@H](C)[C@@H]([C@@H](C)[C@@H](OC)[C@H](C)C(=O)O)O3)O2)O1 [monensin]
- Total HM ([1]; constant monensin 25 nM from day 3, Day 6): 49.6%
- Total HM ([1]; constant monensin 25 nM from day 3, Day 8): 31.1%
- Total HM ([1]; constant monensin 25 nM from day 3, Day 10): 30.9%
- Man6 [1, 3]: 5.3%
- Man7 [1, 3]: 3.6%
- Man8a [1, 3]: 0.7%
- Man8b [1, 3]: 1.4%
- Man9 [1, 3]: 0.3%
- Total HM ([1]; increasing monensin (25 nM day 4, 50 nM days 5-6, 100 nM days 7-9), Day 6): 56.6%
- Total HM ([1]; increasing monensin (25 nM day 4, 50 nM days 5-6, 100 nM days 7-9), Day 8): 67.6%
- Total HM ([1]; increasing monensin (25 nM day 4, 50 nM days 5-6, 100 nM days 7-9), Day 10): 65.8%
- Man5 [1, 4]: 31.6%
- Man6 [1, 4]: 13.7%
- Man7 [1, 4]: 12.3%
- Man8a [1, 4]: 1.0%
- Man8b [1, 4]: 5.9%
- Man9 [1, 4]: 1.3%
- effect on high mannose glycans ([2]; all four antibody products, mock perfusion): increased high mannose glycans on all four antibody products tested in a dose dependent manner
- increase of high mannose levels compared to the control samples ([2]; antibodies collected on day 10, depending on the monensin dose): 1.5 to 15 fold
